From patent US20220023289A1, “Application Of Pyrroloquinoline Quinone In Preparation Of Medicament Used For Preventing And Treating Acute Altitude Sickness And Acute Altitude Hypoxia Injury” (priority 2018, published 2022)

Assays:
[1] = tested on: mice exposed to high altitude hypoxia; test: Exhaustive swimming experiment in mice exposed to high altitude hypoxia (6000 m); format: in vivo, Kunming mice
Text: Select healthy male Kunming mice weight 18-22 g.

[2] = tested on: rats exposed to acute altitude hypoxia; test: Blood glucose in rats exposed to acute altitude hypoxia (6000 m, 8 h, after 7 days intragastric); format: in vivo, Wistar rat; conditions: for Blood sugar: 0.11 g/kg
Experimental: (§1) Select healthy Wistar rats weight 160-200 g, half female and half male. After feeding for 3 days, these Wistar rats are randomly divided into ten groups according to their body weight, each group has 16±2 rats. The groups are divided as follows: five groups of the hypoxic exposure drug test group, respectively, are given 0.91 mg/kg, 1.83 mg/kg, 3.66 mg/kg, 7.31 mg/kg, and 14.63 mg/kg drugs. […] After continuous intragastric administration for 7 days, the animals in the hypoxic exposure group are simultaneously put into the decompression and hypoxia compound experimental chamber, the hatch is closed, and the pressure is reduced at a speed of 10 m/s. After being raised to an altitude of 6000 m and maintained for 8 hours, the speed in 10 m/s drops is reduced to normal altitude, open the hatch, and then take out the animal, collect blood samples (after standing for 1 hour, the supernatant is centrifuged and stored at −20° C.), and liver tissue samples. Detection indicator includes body weight, serum blood glucose, ATP, lactic acid, endothelin, nitric oxide, SOD, CO, MDA related to oxidative stress, and total protein, albumin, triglycerides, total cholesterol, high-density lipoprotein cholesterol, low-density lipoprotein cholesterol, glutamic pyruvic transaminase, total bilirubin, gluamic oxalacetic transaminase, serum urea nitrogen, creatinine, uric acid, lactate dehydrogenase, creatine kinase, α-hydroxybutyrate dehydrogenase; liver ATP, hepatic glycogen. Except that the formal oxygen control animal group is not put into the decompression and hypoxia compound experimental chamber, other experimental conditions and detection indicators are the same.
(§2) Measure blood glucose, total protein, albumin, triglycerides, total cholesterol, high-density lipoprotein cholesterol, low-density lipoprotein cholesterol, glutamic-pyruvic transaminase, total bilirubin, glutamic oxalacetic transaminase, serum urea nitrogen, creatinine, uric acid, lactate dehydrogenase, creatine kinase, α-hydroxybutyrate dehydrogenase, blood homocysteine by using an automatic blood biochemical analyzer.

[3] = tested on: rats with acute altitude hypoxia injury; test: Oxidative stress indexes of rats with acute altitude hypoxia injury; format: in vivo, Wistar rat
Text: Operate according to the instructions, and then measure the absorbance value of each tube, and afterwards calculate the content of malondialdehyde in the sample to be tested according to the formula. […] The latter oxidizes hydroxylamine to form nitrite. It appears purplish red under the action of chromogenic agent. Measure its absorbance by a visible light spectrophotometer. When the measured sample contains superoxide dismutase, it has specific inhibitory effect on superoxide anion free radicals, make formed nitrite reduced. […] The superoxide dismutase activity in the tested sample can be calculated by formula calculation. […] The latter can form a stable complex with phenanthrophins and measure its antioxidant capacity by colorimetry. Operate according to the kit instructions, measure the absorbance of each tube at a wavelength of 520 nm, and then calculate the total antioxidant capacity in the sample to be tested according to the formula.

[4] = tested on: rats exposed to acute altitude hypoxia; test: Endothelial function (serum endothelin-1, nitric oxide) in rats exposed to acute altitude hypoxia; format: in vivo, Wistar rat; conditions: for Endothelin-1 / Nitric oxide: 0.11 g/kg
Text: This method uses nitrate reductase specificity reduce NO^3− to NO^2−, and then determine the level of its concentration by displaying shades of color. Operate according to the kit instructions, measure the absorbance of each tube at a wavelength of 550 nm, and then calculate the content of nitric oxide of the sample to be tested according to the formula. To the coated microwells pre-coated with rat endothelin (endothelin-1) capture antibody, add in sequence specimens, standards, and HRP-labeled detection antibody, and then incubate and wash thoroughly. Use a substrate TMB for color development. TMB is converted into blue under the catalysis of peroxidase and converted into the final yellow color under the action of acid. The color intensity is positively correlated with the rat endothelin (endothelin-1) in the sample.

[5] = Body weight of mice before closed hypoxia tolerance test; conditions: 0.16 g/kg
[6] = tested on: rats exposed to acute altitude hypoxia; test: Liver function of rats exposed to acute altitude hypoxia; format: in vivo, Wistar rat
Experimental: as §1, §2

[7] = tested on: rats exposed to acute altitude hypoxia; test: Lipid metabolism in rats exposed to acute altitude hypoxia; format: in vivo, Wistar rat
Experimental: as §1, §2

[8] = female rats, hypoxia, 0.11 g/kg
[9] = female rats, normoxia, 0.11 g/kg

In the case of `CC(=O)Nc1nnc(S(N)(=O)=O)s1` [Acetazolamide, reference compound], the “start time of exhaustion swimming death” value ([1]; male mice, 6000 m) is reported as “died earlier”, the “Exhausted swimming survival time” value ([1]; male mice, 6000 m, 7 days, acetazolamide positive drug control (0.16 g/kg)) is reported as 130.64 ± 79.46 min and the “increasing rate of survival time” value ([1]; male mice, 6000 m, acetazolamide positive drug control (0.16 g/kg)) is reported as 2.10%. For the same molecule, the “effect on survival time after exhausting swimming / working ability under hypoxia” value ([1]; mice under low oxygen exposure) was “no effect”, the “effect on blood glucose” value ([2]; acute hypoxia exposed female rats) was “no significant effects” and the Blood sugar ([2]; female rats, hypoxia) was 7.63 ± 0.76 mmol/L. For the same molecule, the “effect on blood glucose” value ([2]; female rats, normoxia) was “lowering the blood glucose”, the Blood sugar ([2]; female rats, normoxia) was 7.18 ± 0.39 mmol/L and the “effect on blood glucose level” value ([2]; male rats) was “no significant effects”. For the same molecule, the Blood sugar ([2]; male rats, hypoxia) was 8.87 ± 1.24 mmol/L, the “Endo Dialdehyde” value [3, 8] was 13.09 ± 2.13 nmol/L and the Superoxide dismutase [3, 8] was 57.11 ± 3.40 U/ml. The Total antioxidants [3, 8] was 10.36 ± 0.81 U/ml, the “Endo Dialdehyde” value [3, 9] was 14.12 ± 0.32 nmol/L and the Superoxide dismutase [3, 9] was 50.88 ± 3.34 U/ml. The Total antioxidants [3, 9] was 10.31 ± 0.20 U/ml, the “effect on serum superoxide dismutase activity” value ([3]; hypoxia exposed female rats) was “increasing” and the “effect on serum total antioxidants and malondialdehyde” value ([3]; hypoxia exposed female rats) was “no significant effects”. For the same molecule, the “effect on serum superoxide dismutase activity” value ([3]; hypoxia exposed male rats) was “increasing”, the “effect on serum total antioxidants and malondialdehyde” value ([3]; male rats) was “no significant effects” and the Malonaldehyde ([3]; male rats, hypoxia, 0.11 g/kg) was 3.24 ± 1.52 nmol/L. For the same molecule, the Superoxide dismutase ([3]; male rats, hypoxia, 0.11 g/kg) was 182.51 ± 4.46 U/ml, the “effect on serum endothelin-1 and nitric oxide” value ([4]; female rats after acute hypoxia exposure) was “no significant effects” and the Endothelin-1 ([4]; female rats, hypoxia) was 55.66 ± 6.39 ng/mL. The Nitric oxide ([4]; female rats, hypoxia) was 4.96 ± 3.13 µmol/L, the “effect on nitric oxide content” value ([4]; female rats, normoxia) was “no significant effects” and the “effect on serum endothelin-1 content” value ([4]; female rats, normoxia) was “can reduce”. For the same molecule, the Endothelin-1 ([4]; female rats, normoxia) was 36.18 ± 2.31 ng/mL, the Nitric oxide ([4]; female rats, normoxia) was 4.08 ± 0.88 µmol/L and the “effect on serum endothelin-1 and nitric oxide” value ([4]; hypoxia exposed male rats) was “slight reduction”. For the same molecule, the Endothelin-1 ([4]; male rats, hypoxia) was 42.41 ± 0.7 ng/mL, the Nitric oxide ([4]; male rats, hypoxia) was 3.52 ± 1.25 µmol/L and the “weight 1 day” value ([5]; female mice) was 20.27 ± 0.90 g. The “weight 3 days” value ([5]; female mice) was 20.88 ± 1.50 g, the “weight 1 day” value ([5]; male mice) was 15.41 ± 1.08 g and the “weight 3 days” value ([5]; male mice) was 15.88 ± 1.24 g. The Glutamic oxalacetic transaminase [6, 8] was 73.20 ± 11.19 U, the Glutamic-pyruvic transaminase [6, 8] was 28.40 ± 2.30 U and the “effect on glutamic-pyruvic transaminase and glutamic oxalacetic transaminase” value ([6]; female rats, normoxia) was “no significant effects”. For the same molecule, the Glutamic oxalacetic transaminase [6, 9] was 102.33 ± 11.02 U, the Glutamic-pyruvic transaminase [6, 9] was 41.67 ± 10.97 U and the “effect on glutamic pyruvic transaminase and total bilirubin” value ([6]; hypoxia exposed male rats) was “no significant effects”. For the same molecule, the “effect on serum glutamic oxalacetic transaminase” value ([6]; hypoxia exposed male rats) was “increasing”, the Glutamic oxalacetic transaminase ([6]; male rats, hypoxia, 0.11 g/kg) was 77.57 ± 6.80 U and the Glutamic-pyruvic transaminase ([6]; male rats, hypoxia, 0.11 g/kg) was 44.00 ± 3.56 U. The Total bilirubin ([6]; male rats, hypoxia, 0.11 g/kg) was 0.15 ± 0.16 µmol/L, the “High density lipoprotein cholesterol” value [7, 8] was 1.55 ± 0.19 mmol/L and the “Low density lipoprotein cholesterol” value [7, 8] was 0.17 ± 0.04 mmol/L. For the same molecule, the Total cholesterol [7, 8] was 2.02 ± 0.20 mmol/L, the “effect on low-density lipoprotein cholesterol” value ([7]; female rats, normoxia) was “no significant effects” and the “effect on total cholesterol and high-density lipoprotein cholesterol” value ([7]; female rats, normoxia) was “can increase”. For the same molecule, the “High density lipoprotein cholesterol” value [7, 9] was 1.67 ± 0.07 mmol/L, the “Low density lipoprotein cholesterol” value [7, 9] was 0.16 ± 0.02 mmol/L and the Total cholesterol [7, 9] was 2.14 ± 0.10 mmol/L. For the same molecule, the “effect on total cholesterol, low-density and high-density lipoprotein cholesterol” value ([7]; hypoxia exposed female rats) was “increasing”, the “effect on total, high-density and low-density lipoprotein cholesterol” value ([7]; male rats) was “no significant effect” and the effect on triglycerides ([7]; male rats exposed to hypoxia) was “is not found”. For the same molecule, the “High density lipoprotein cholesterol” value ([7]; male rats, hypoxia, 0.11 g/kg) was 1.39 ± 0.14 mmol/L, the “Low density lipoprotein cholesterol” value ([7]; male rats, hypoxia, 0.11 g/kg) was 0.21 ± 0.05 mmol/L and the Total cholesterol ([7]; male rats, hypoxia, 0.11 g/kg) was 1.88 ± 0.21 mmol/L. The Triglycerides ([7]; male rats, hypoxia, 0.11 g/kg) was 1.05 ± 0.49 mmol/L.
